Reference: patent publication US20100248377A1, “DETECTION OF CONTRAST MEDIUM-INDUCED NEPHROTOXICITY” (priority 2007, published 2010)

Legend:
Assay type in all cases: in vivo, human
urotensin II (urine) [1] = assay: Dose response analysis, urotensin II in urine of PCTA patients after contrast medium; details: 24 h after vs before administration; six patients, 50-350 ml
Experimental: (§1) The effect of the administration of various amounts of the contrast medium Iobitridol (Xenetix, Xen 350) on the level of creatinine, urotensin II, total adiponectin and L-FABP in urine samples obtained from subjects which underwent percutaneous transluminal coronary angioplasty (PCTA) was analysed. All six patients examined in this study had no apparent renal disorder indicated by a serum creatinine level of less than 1.2 mg/dl (before PCTA). Each patient received a different amount of the contrast medium (50 ml, 80 ml, 100 ml, 150 ml, 220 ml and 350 ml, respectively). The urinary levels of creatinine, urotensin II, total adiponectin and L-FABP were determined in samples that were obtained prior to the administration of different volumes of the contrast medium (time point 0) and 24 h after the administration of the contrast medium. […] The results are normalized to the urinary creatinine concentration. From the data it clearly can be seen that a high dose of an administered contrast medium leads to a significant increase of adiponectin and L-FABP.

urotensin II (urine) [2] = assay: Example 2 study, 20 PCTA subjects, urine urotensin II after contrast medium; details: for Urotensin II, median: urine, n = 20, t = 0 h value 1.18
Experimental: (§2) In a different study, the effect of the administration of the contrast medium lobitridol (Xenetix, Xen 350) on the urine level of creatinine, urotensin II, total adiponectin and L-FABP in samples obtained from 20 subjects which underwent percutaneous transluminal coronary angioplasty (PCTA) was analyzed. Samples were obtained prior to the administration of the contrast medium (t=0 h), four hours after administration of the contrast medium (t=4 h), as well as 24 hours after administration of the contrast medium.

L-FABP (urine) [3] = assay: Dose response analysis, L-FABP in urine of PCTA patients after contrast medium; details: for L-FABP Changes: 24 h vs 0 h; for 24 h L-FABP: urine
Experimental: as §1

urotensin II (urine) [4] = assay: Example 3 case, coronary angiography, urine urotensin II; details: person, 350 ml, 24 hours after administration; before 1.2
Experimental: (§3) In order to examine whether the chest pain is caused by a coronary artery disease, a coronary angiography is initiated. A serum sample is obtained from the patient prior to the angiography and the amount of creatinine is determined in a serum sample (0.9 mg/dl). Moreover, in a urine sample HMW adiponectin, urotensin II and L-FABP are determined (adiponectin 0.92 μg/g Creatinine; L-FABP 7 μg/g Creatinine; Urotensin II: 1.2 μg/g Creatinine).
(§4) For coronary angiography 350 ml Xen350 are administered to the patient as a contrast medium. After successful coronary angiography, the patient is monitored for 24 hours. Moreover, creatinine (serum level: 1 mg/dl), adiponectin, L-FABP and urotensin II are determined again after 24 hours after the administration of the contrast medium (urine level: adiponectin 1.55 μg/g Creatinine; L-FABP 21 μg/g Creatinine; Urotensin II: 6 μg/g Creatinine).

L-FABP (urine) [5] = assay: Example 3 case, coronary angiography, urine L-FABP; details: person, 350 ml, 24 hours after administration; before 7
Experimental: as §3, §4

[6] = system: total adiponectin (urine); assay: Example 2 study, 20 PCTA subjects, urine total adiponectin after contrast medium; details: n = 20, t = 0 h value 0.66
Experimental: as §2

L-FABP (urine) [7] = assay: Example 2 study, 20 PCTA subjects, urine L-FABP after contrast medium; details: for L-FABP, median: urine, n = 20, t = 0 h value 13.44
Experimental: as §2

HMW adiponectin (urine) = assay: Example 3 case, coronary angiography, urine HMW adiponectin; details: person, 350 ml, 24 hours after administration; before 0.92
Experimental: as §3, §4

creatinine (urine) [8] = assay: Example 2 study, 20 PCTA subjects, urine creatinine after contrast medium; details: n = 20, t = 0 h value 0.75
Experimental: as §2

[9] = system: total adiponectin (urine); assay: Dose response analysis, total adiponectin in urine of PCTA patients after contrast medium; details: for Adiponectin Changes: 24 h vs 0 h; for 24 h Adiponectin: urine
Experimental: as §1

creatinine (urine) [10] = assay: Dose response analysis, creatinine in urine of PCTA patients after contrast medium; details: 24 h after vs before administration; six patients, 50-350 ml
Experimental: as §1

serum creatinine = assay: Example 3 case, coronary angiography, serum creatinine and renal outcome; details: person, 350 ml
Experimental: as §3, §4

[11] = 24 h after vs before administration, six patients, 50-350 ml

**Q.** Which results are given for `CN(CC(O)CO)C(=O)c1c(I)c(NC(=O)C(CO)CO)c(I)c(C(=O)N(C)CC(O)CO)c1I` (centres unmarked) [Xen350, Iobitridol]?
**A.** increase of median urotensin II in urine (urotensin II (urine) [1]): 350%; Urotensin II (urotensin II (urine) [2]; Table 3 Patient 1, t = 4 h, t = 0 h value 832): 999 pg/mL; Urotensin II (urotensin II (urine) [2]; Table 3 Patient 1, t = 24 h, t = 0 h value 832): 2591 pg/mL; Urotensin II (urotensin II (urine) [2]; Table 3 Patient 2, t = 4 h, t = 0 h value 1043): 1131 pg/mL; Urotensin II (urotensin II (urine) [2]; Table 3 Patient 2, t = 24 h, t = 0 h value 1043): 39441 pg/mL; Urotensin II, median (urotensin II (urine) [2]; t = 4 h): 1.23 μg/g Creatinine; Urotensin II, median (urotensin II (urine) [2]; t = 24 h): 1.77 μg/g Creatinine; increase of median L-FABP in urine (L-FABP (urine) [3]; [11]): 415%; L-FABP Changes (L-FABP (urine) [3]; Patient 1, 50 ml): −45%; 24 h L-FABP (L-FABP (urine) [3]; Patient 1, 50 ml, 0 h value 20.19): 11.17 ug/g Crea; L-FABP Changes (L-FABP (urine) [3]; Patient 2, 80 ml): 49%; 24 h L-FABP (L-FABP (urine) [3]; Patient 2, 80 ml, 0 h value 42.71): 63.48 ug/g Crea; L-FABP Changes (L-FABP (urine) [3]; Patient 3, 100 ml): 40%; 24 h L-FABP (L-FABP (urine) [3]; Patient 3, 100 ml, 0 h value 13.77): 19.33 ug/g Crea; L-FABP Changes (L-FABP (urine) [3]; Patient 4, 150 ml): 481%; 24 h L-FABP (L-FABP (urine) [3]; Patient 4, 150 ml, 0 h value 6.8): 32.74 ug/g Crea; L-FABP Changes (L-FABP (urine) [3]; Patient 5, 220 ml): 544%; 24 h L-FABP (L-FABP (urine) [3]; Patient 5, 220 ml, 0 h value 13.1): 71.23 ug/g Crea; L-FABP Changes (L-FABP (urine) [3]; Patient 6, 350 ml): 406%; 24 h L-FABP (L-FABP (urine) [3]; Patient 6, 350 ml, 0 h value 4.36): 17.71 ug/g Crea; Urotensin II urine level (urotensin II (urine) [4]): 6 μg/g Creatinine; L-FABP urine level (L-FABP (urine) [5]): 21 μg/g Creatinine; Adiponectin, median ([6]; t = 4 h): 0.89 μg/g Creatinine; Adiponectin, median ([6]; t = 24 h): 1.09 μg/g Creatinine; L-FABP (L-FABP (urine) [7]; Table 3 Patient 1, t = 4 h, t = 0 h value 12): 6 μg/g Creatinine; L-FABP (L-FABP (urine) [7]; Table 3 Patient 1, t = 24 h, t = 0 h value 12): 26 μg/g Creatinine; L-FABP (L-FABP (urine) [7]; Table 3 Patient 2, t = 4 h, t = 0 h value 5): 6 μg/g Creatinine; L-FABP (L-FABP (urine) [7]; Table 3 Patient 2, t = 24 h, t = 0 h value 5): 33 μg/g Creatinine; L-FABP, median (L-FABP (urine) [7]; t = 4 h): 12.16 μg/g Creatinine; L-FABP, median (L-FABP (urine) [7]; t = 24 h): 26.03 μg/g Creatinine; adiponectin urine level (HMW adiponectin (urine)): 1.55 μg/g Creatinine; Creatinine, median (creatinine (urine) [8]; t = 4 h): 0.45 g/L; Creatinine, median (creatinine (urine) [8]; t = 24 h): 1.05 g/L; increase of median adiponectin in urine [9, 11]: 400%; Adiponectin Changes ([9]; Patient 1, 50 ml): −88%; 24 h Adiponectin ([9]; Patient 1, 50 ml, 0 h value 0.92): 0.11 ug/g Crea; Adiponectin Changes ([9]; Patient 2, 80 ml): −22%; 24 h Adiponectin ([9]; Patient 2, 80 ml, 0 h value 2.99): 2.34 ug/g Crea; Adiponectin Changes ([9]; Patient 3, 100 ml): −44%; 24 h Adiponectin ([9]; Patient 3, 100 ml, 0 h value 2.68): 1.49 ug/g Crea; Adiponectin Changes ([9]; Patient 4, 150 ml): −91%; 24 h Adiponectin ([9]; Patient 4, 150 ml, 0 h value 0.32): 0.03 ug/g Crea; Adiponectin Changes ([9]; Patient 5, 220 ml): 897%; 24 h Adiponectin ([9]; Patient 5, 220 ml, 0 h value 0.41): 3.68 ug/g Crea; Adiponectin Changes ([9]; Patient 6, 350 ml): 690%; 24 h Adiponectin ([9]; Patient 6, 350 ml, 0 h value 0.1): 0.69 ug/g Crea; increase of median creatinine in urine (creatinine (urine) [10]): 41%; creatinine serum level (serum creatinine; 24 hours after administration, before 0.9): 1 mg/dL; serum creatinine level (serum creatinine; after two more days (after the 24 h monitoring)): 2.5 mg/dL; renal outcome diagnosed (serum creatinine; after two more days, significantly reduced urine excretion): acute renal failure
